Test system: sugarcane
Experiment: Sugarcane flowering inhibition field trials, floral induction rated on UFSCar scale
Type: in vivo
Description: In order to explore the activity of florpyrauxifen as flowering inhibitor in sugarcane, field studies were carried out. Florpyrauxifen-benzyl was tested at rates from 2 to 20 grams active ingredient per hectare (g ai/ha) and compared to Ethrel® 720 (Bayer), the standard treatment. The flowering inhibition effect was assessed by checking the floral induction in sugarcane through the percentage scale recommended by UFSCar (Federal University of Sao Carlos, Sao Paulo, Brazil).
Four trials were carried out in sugarcane where florpyrauxifen-benzyl (Rinskor®), applied at a rate of 2 to 20 g ai/ha, was compared to ethephon (Ethrel® 720) applied at a rate of 475 g ai/ha. Control plots of untreated sugarcane were also evaluated. Rinskor® and Ethrel® 720 were diluted in water and a single application for each study (backpack sprayer) was performed delivering 50 L of spray solution per ha at the reproductive stage of sugarcane and at a maximum 150 days before harvest. The activity of florpyrauxifen-benzyl as a flowering inhibitor was measured via assessments (Scale of flowering inhibition—see chart 1) performed at 0, 14, 30, 45, 60, 75, 90, 120, 150 days after application, or up to harvest time. The assessments were measured in sugarcane stems, rating the flowering induction according to the UFSCar scale shown below. Significance of treatment effect was evaluated with F-approximate test (α=0.1) and least square means from different treatments were compared with Tukey's test.

In the case of `COc1c(Cl)ccc(-c2nc(C(=O)OCc3ccccc3)c(Cl)c(N)c2F)c1F` [Rinskor, florpyrauxifen-benzyl], the “% Referring to Scale” value (Table 1, 120 DAA, 20 g ai/ha) is reported as 12.8%, the “Frequency 1/1 (0%)” value (Table 1, 120 DAA, 20 g ai/ha) is reported as 15.0% and the “Frequency 2/1 (15%)” value (Table 1, 120 DAA, 20 g ai/ha) is reported as 85.0%. For the same compound, the “Frequency 3/1 (30%)” value (Table 1, 120 DAA, 20 g ai/ha) was 0.0%, the “Frequency 4/1 (50%)” value (Table 1, 120 DAA, 20 g ai/ha) was 0.0% and the “Frequency 4/2 (80%)” value (Table 1, 120 DAA, 20 g ai/ha) was 0.0%. For the same compound, the “Frequency 4/3 (90%)” value (Table 1, 120 DAA, 20 g ai/ha) was 0.0%, the “Frequency 4/4 (100%)” value (Table 1, 120 DAA, 20 g ai/ha) was 0.0% and the “% Referring to Scale” value (Table 2, 75 DAA, 2 g ai/ha) was 1.1%. The “Frequency 1/1 (0%)” value (Table 2, 75 DAA, 2 g ai/ha) was 92.5%, the “Frequency 2/1 (15%)” value (Table 2, 75 DAA, 2 g ai/ha) was 7.5% and the “Frequency 3/1 (30%)” value (Table 2, 75 DAA, 2 g ai/ha) was 0.0%. The “Frequency 4/1 (50%)” value (Table 2, 75 DAA, 2 g ai/ha) was 0.0%, the “Frequency 4/2 (80%)” value (Table 2, 75 DAA, 2 g ai/ha) was 0.0% and the “Frequency 4/3 (90%)” value (Table 2, 75 DAA, 2 g ai/ha) was 0.0%. For the same compound, the “Frequency 4/4 (100%)” value (Table 2, 75 DAA, 2 g ai/ha) was 0.0%, the “% Referring to Scale” value (Table 2, 75 DAA, 5 g ai/ha) was 0.8% and the “Frequency 1/1 (0%)” value (Table 2, 75 DAA, 5 g ai/ha) was 95.0%. The “Frequency 2/1 (15%)” value (Table 2, 75 DAA, 5 g ai/ha) was 5.0%, the “Frequency 3/1 (30%)” value (Table 2, 75 DAA, 5 g ai/ha) was 0.0% and the “Frequency 4/1 (50%)” value (Table 2, 75 DAA, 5 g ai/ha) was 0.0%. For the same compound, the “Frequency 4/2 (80%)” value (Table 2, 75 DAA, 5 g ai/ha) was 0.0%, the “Frequency 4/3 (90%)” value (Table 2, 75 DAA, 5 g ai/ha) was 0.0% and the “Frequency 4/4 (100%)” value (Table 2, 75 DAA, 5 g ai/ha) was 0.0%. The “% Referring to Scale” value (Table 2, 75 DAA, 7 g ai/ha) was 0.8%, the “Frequency 1/1 (0%)” value (Table 2, 75 DAA, 7 g ai/ha) was 95.0% and the “Frequency 2/1 (15%)” value (Table 2, 75 DAA, 7 g ai/ha) was 5.0%. For the same compound, the “Frequency 3/1 (30%)” value (Table 2, 75 DAA, 7 g ai/ha) was 0.0%, the “Frequency 4/1 (50%)” value (Table 2, 75 DAA, 7 g ai/ha) was 0.0% and the “Frequency 4/2 (80%)” value (Table 2, 75 DAA, 7 g ai/ha) was 0.0%. For the same compound, the “Frequency 4/3 (90%)” value (Table 2, 75 DAA, 7 g ai/ha) was 0.0%, the “Frequency 4/4 (100%)” value (Table 2, 75 DAA, 7 g ai/ha) was 0.0% and the “% Referring to Scale” value (Table 2, 75 DAA, 10 g ai/ha) was 0.4%. The “Frequency 1/1 (0%)” value (Table 2, 75 DAA, 10 g ai/ha) was 97.5%, the “Frequency 2/1 (15%)” value (Table 2, 75 DAA, 10 g ai/ha) was 2.5% and the “Frequency 3/1 (30%)” value (Table 2, 75 DAA, 10 g ai/ha) was 0.0%. The “Frequency 4/1 (50%)” value (Table 2, 75 DAA, 10 g ai/ha) was 0.0%, the “Frequency 4/2 (80%)” value (Table 2, 75 DAA, 10 g ai/ha) was 0.0% and the “Frequency 4/3 (90%)” value (Table 2, 75 DAA, 10 g ai/ha) was 0.0%. The “Frequency 4/4 (100%)” value (Table 2, 75 DAA, 10 g ai/ha) was 0.0%, the “% Referring to Scale” value (Table 2, 75 DAA, 15 g ai/ha) was 1.1% and the “Frequency 1/1 (0%)” value (Table 2, 75 DAA, 15 g ai/ha) was 92.5%. The “Frequency 2/1 (15%)” value (Table 2, 75 DAA, 15 g ai/ha) was 7.5%, the “Frequency 3/1 (30%)” value (Table 2, 75 DAA, 15 g ai/ha) was 0.0% and the “Frequency 4/1 (50%)” value (Table 2, 75 DAA, 15 g ai/ha) was 0.0%. The “Frequency 4/2 (80%)” value (Table 2, 75 DAA, 15 g ai/ha) was 0.0%, the “Frequency 4/3 (90%)” value (Table 2, 75 DAA, 15 g ai/ha) was 0.0% and the “Frequency 4/4 (100%)” value (Table 2, 75 DAA, 15 g ai/ha) was 0.0%. The “% Referring to Scale” value (Table 2, 75 DAA, 20 g ai/ha) was 0.8%, the “Frequency 1/1 (0%)” value (Table 2, 75 DAA, 20 g ai/ha) was 95.0% and the “Frequency 2/1 (15%)” value (Table 2, 75 DAA, 20 g ai/ha) was 5.0%. The “Frequency 3/1 (30%)” value (Table 2, 75 DAA, 20 g ai/ha) was 0.0%, the “Frequency 4/1 (50%)” value (Table 2, 75 DAA, 20 g ai/ha) was 0.0% and the “Frequency 4/2 (80%)” value (Table 2, 75 DAA, 20 g ai/ha) was 0.0%. For the same compound, the “Frequency 4/3 (90%)” value (Table 2, 75 DAA, 20 g ai/ha) was 0.0%, the “Frequency 4/4 (100%)” value (Table 2, 75 DAA, 20 g ai/ha) was 0.0% and the “% Referring to Scale” value (Table 2, 90 DAA, 2 g ai/ha) was 60.3%. For the same compound, the “Frequency 1/1 (0%)” value (Table 2, 90 DAA, 2 g ai/ha) was 0.0%, the “Frequency 2/1 (15%)” value (Table 2, 90 DAA, 2 g ai/ha) was 0.0% and the “Frequency 3/1 (30%)” value (Table 2, 90 DAA, 2 g ai/ha) was 20.0%. For the same compound, the “Frequency 4/1 (50%)” value (Table 2, 90 DAA, 2 g ai/ha) was 32.5%, the “Frequency 4/2 (80%)” value (Table 2, 90 DAA, 2 g ai/ha) was 47.5% and the “Frequency 4/3 (90%)” value (Table 2, 90 DAA, 2 g ai/ha) was 0.0%. For the same compound, the “Frequency 4/4 (100%)” value (Table 2, 90 DAA, 2 g ai/ha) was 0.0%, the “% Referring to Scale” value (Table 2, 90 DAA, 5 g ai/ha) was 43.5% and the “Frequency 1/1 (0%)” value (Table 2, 90 DAA, 5 g ai/ha) was 0.0%. For the same compound, the “Frequency 2/1 (15%)” value (Table 2, 90 DAA, 5 g ai/ha) was 0.0%, the “Frequency 3/1 (30%)” value (Table 2, 90 DAA, 5 g ai/ha) was 32.5% and the “Frequency 4/1 (50%)” value (Table 2, 90 DAA, 5 g ai/ha) was 67.5%. For the same compound, the “Frequency 4/2 (80%)” value (Table 2, 90 DAA, 5 g ai/ha) was 0.0%, the “Frequency 4/3 (90%)” value (Table 2, 90 DAA, 5 g ai/ha) was 0.0% and the “Frequency 4/4 (100%)” value (Table 2, 90 DAA, 5 g ai/ha) was 0.0%. The “% Referring to Scale” value (Table 2, 90 DAA, 7 g ai/ha) was 44.8%, the “Frequency 1/1 (0%)” value (Table 2, 90 DAA, 7 g ai/ha) was 0.0% and the “Frequency 2/1 (15%)” value (Table 2, 90 DAA, 7 g ai/ha) was 0.0%. For the same compound, the “Frequency 3/1 (30%)” value (Table 2, 90 DAA, 7 g ai/ha) was 37.5%, the “Frequency 4/1 (50%)” value (Table 2, 90 DAA, 7 g ai/ha) was 55.0% and the “Frequency 4/2 (80%)” value (Table 2, 90 DAA, 7 g ai/ha) was 7.5%. The “Frequency 4/3 (90%)” value (Table 2, 90 DAA, 7 g ai/ha) was 0.0%, the “Frequency 4/4 (100%)” value (Table 2, 90 DAA, 7 g ai/ha) was 0.0% and the “% Referring to Scale” value (Table 2, 90 DAA, 10 g ai/ha) was 37.4%. For the same compound, the “Frequency 1/1 (0%)” value (Table 2, 90 DAA, 10 g ai/ha) was 0.0%, the “Frequency 2/1 (15%)” value (Table 2, 90 DAA, 10 g ai/ha) was 7.5% and the “Frequency 3/1 (30%)” value (Table 2, 90 DAA, 10 g ai/ha) was 50.0%. For the same compound, the “Frequency 4/1 (50%)” value (Table 2, 90 DAA, 10 g ai/ha) was 42.5%, the “Frequency 4/2 (80%)” value (Table 2, 90 DAA, 10 g ai/ha) was 0.0% and the “Frequency 4/3 (90%)” value (Table 2, 90 DAA, 10 g ai/ha) was 0.0%. For the same compound, the “Frequency 4/4 (100%)” value (Table 2, 90 DAA, 10 g ai/ha) was 0.0%, the “% Referring to Scale” value (Table 2, 90 DAA, 15 g ai/ha) was 39.8% and the “Frequency 1/1 (0%)” value (Table 2, 90 DAA, 15 g ai/ha) was 0.0%. The “Frequency 2/1 (15%)” value (Table 2, 90 DAA, 15 g ai/ha) was 15.0%, the “Frequency 3/1 (30%)” value (Table 2, 90 DAA, 15 g ai/ha) was 25.0% and the “Frequency 4/1 (50%)” value (Table 2, 90 DAA, 15 g ai/ha) was 60.0%. For the same compound, the “Frequency 4/2 (80%)” value (Table 2, 90 DAA, 15 g ai/ha) was 0.0%, the “Frequency 4/3 (90%)” value (Table 2, 90 DAA, 15 g ai/ha) was 0.0% and the “Frequency 4/4 (100%)” value (Table 2, 90 DAA, 15 g ai/ha) was 0.0%. For the same compound, the “% Referring to Scale” value (Table 2, 90 DAA, 20 g ai/ha) was 46.0%, the “Frequency 1/1 (0%)” value (Table 2, 90 DAA, 20 g ai/ha) was 0.0% and the “Frequency 2/1 (15%)” value (Table 2, 90 DAA, 20 g ai/ha) was 5.0%. The “Frequency 3/1 (30%)” value (Table 2, 90 DAA, 20 g ai/ha) was 30.0%, the “Frequency 4/1 (50%)” value (Table 2, 90 DAA, 20 g ai/ha) was 52.5% and the “Frequency 4/2 (80%)” value (Table 2, 90 DAA, 20 g ai/ha) was 12.5%. The “Frequency 4/3 (90%)” value (Table 2, 90 DAA, 20 g ai/ha) was 0.0%, the “Frequency 4/4 (100%)” value (Table 2, 90 DAA, 20 g ai/ha) was 0.0% and the “% Referring to Scale” value (Table 2, 120 DAA, 2 g ai/ha) was 95.8%. The “Frequency 1/1 (0%)” value (Table 2, 120 DAA, 2 g ai/ha) was 0.0%, the “Frequency 2/1 (15%)” value (Table 2, 120 DAA, 2 g ai/ha) was 0.0% and the “Frequency 3/1 (30%)” value (Table 2, 120 DAA, 2 g ai/ha) was 0.0%. The “Frequency 4/1 (50%)” value (Table 2, 120 DAA, 2 g ai/ha) was 0.0%, the “Frequency 4/2 (80%)” value (Table 2, 120 DAA, 2 g ai/ha) was 5.0% and the “Frequency 4/3 (90%)” value (Table 2, 120 DAA, 2 g ai/ha) was 32.5%. For the same compound, the “Frequency 4/4 (100%)” value (Table 2, 120 DAA, 2 g ai/ha) was 62.5% and the “% Referring to Scale” value (Table 2, 120 DAA, 5 g ai/ha) was 96.5%.
